Reference: patent US5264621A, “Anti-virus agent” (Sanyo-Kokusaku Pulp Co., Ltd., priority 1991, dated 1993)
In brackets after ≈: the same amount, converted by molar mass. Like-named read-outs stand apart in the source and are kept apart here.

Key:
[1] = tested on: HTLV-IIIB; assay: Inhibitory effect on the destruction of T-cells due to HIV (MTT), HTLV-IIIB; type: cell-based, HIV (human immunodeficiency virus); settings: MT-4 cells
Method: (§1) 1. Inhibitory effect on the destruction of T-cells due to HIV
(§2) Various concentrations of 3,3'-[1,10-decanediyl-bis(carbonylamino)]-bis(1,5-naphthalenedisulfonc acid) were added to each medium suspended 1×10^5 cells/ml of MT-4 cells, which was infected with HTLV-IIIB or HIV-1HE. Infection was made at an infection number of MOI=0.02. Then, after cultured for 4 days at 37° C., the number of surviving cells was quantitatively determined by dyeing surviving cells with MTT dye. Moreover, at the same time, by dyeing also non-infected cells with MTT dye, the toxicity of sample to cells was calculated.

[2] = tested on: HIV-1HE; assay: Inhibitory effect on the destruction of T-cells due to HIV (MTT), HIV-1HE; type: cell-based, HIV (human immunodeficiency virus); settings: MT-4 cells
Method: as §1, §2

[3] = Toxicity of sample to non-infected cells (MTT); type: cell-based; settings: human, mt-4 cells, non-infected MT-4 cells, read-out: CC50 = 50% toxic concentration
Method: as §2

[4] = tested on: MOLT-4 cells infected with HTLV-IIIB; assay: Inhibition of the formation of giant cells; type: cell-based; settings: co-culture of HTLV-IIIB infected and non-infected MOLT-4 cells, 24 hours, counted under microscope
Method: 3. Inhibition of the formation of giant cells
MOLT-4 cells infected with HTLV-IIIB and MOLT-4 cells without infection were cultured each in same number (5×10^4) in medium with 3,3'-[1,10-decanediyl-bis(carbonylamino)]-bis(1,5-naphthalenedisulfonic acid) added and, after cultured for 24 hours, the number of giant cells formed was counted under microscope.

[5] = tested on: bone marrow cells; settings: background statement; cited from earlier work
[6] = Human immunodeficiency virus 1, MT4, 96 h, MOI=0.02, 4 days at 37° C., MTT, read-out: EC50 = Effective concentration for inhibition of 50% cells

| Structure (SMILES) | EC50 [1, 6] | T.I. = Selective toxicity (CC50 /EC50) [1] | EC50 [2, 6] | T.I. = Selective toxicity (CC50 /EC50) [2] | CC50 at 96 h ([3]; HIV-1HE system (No. 2)) | CC50 at 96 h ([3]; HTLV-IIIB system (No. 1)) | inhibitory activity against formation of giant cells [4] | side effects [5] |
| --- | --- | --- | --- | --- | --- | --- | --- | --- |
| O=C(CCCCCCCCCCC(=O)Nc1cc(S(=O)(=O)O)c2cccc(S(=O)(=O)O)c2c1)Nc1cc(S(=O)(=O)O)c2cccc(S(=O)(=O)O)c2c1 [3,3'-[1,10-decanediyl-bis(carbonylamino)]-bis(1,5-naphthalenedisulfonic acid)] | 46 µg/mL (≈ 57.4 µM) | 8.3 | 40.7 µg/mL (≈ 50.8 µM) | 12.3 | 500 µg/mL (≈ 624 µM) | 383 µg/mL (≈ 478 µM) | recognized | – |
| Cc1cn([C@H]2C[C@H](N=[N+]=[N-])[C@@H](CO)O2)c(=O)[nH]c1=O [AZT, azido thymidine] | – | – | – | – | – | – | – | inhibition of the growth of bone marrow cells |
